Results: the supplement of paper PMC10307832

Columns and labels:
Assay in all cases: relative viability (nuclei count vs DMSO), 5 days (fraction); higher = more cells survive
ChaGo-K-1 = system: ChaGo-K-1
In short: (§1)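 Cells from lung cancer lines were seeded into 1536-well plates and, one day later, dosed by pin tool. Treatments were either a single drug or a fixed dose of an anchor drug with five library-drug doses (not always all listed) in √10 steps. After 5 days, nuclei were stained in a one-step fixation (final 0.05% Triton X-100, 1% formaldehyde, 1 ug/ml Hoechst) and counted on 4× images, and relative viability is the treated-to-vehicle nuclei ratio, as the median of duplicate plates.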

HCC-78 = system: HCC-78
In short: as §1

HOP-62 = system: HOP-62
In short: as §1

LCLC-97TM1 = system: LCLC-97TM1
In short: as §1

LOU-NH91 = system: LOU-NH91
In short: as §1

NCI-H1355 = system: NCI-H1355
In short: as §1

NCI-H1437 = system: NCI-H1437
In short: as §1

NCI-H1648 = system: NCI-H1648
In short: as §1

NCI-H1755 = system: NCI-H1755
In short: as §1

NCI-H1792 = system: NCI-H1792
In short: as §1

NCI-H2009 = system: NCI-H2009
In short: as §1

NCI-H2023 = system: NCI-H2023
In short: as §1

SMILES: CCCCCCCCCCCC1=C(O)C(=O)C=C(O)C1=O [Embelin] + CC(=O)Nc1cccc(-n2c(=O)n(C3CC3)c(=O)c3c(Nc4ccc(I)cc4F)n(C)c(=O)c(C)c32)c1 [Trametinib] (partner 0.02 µM)
- relative viability (ChaGo-K-1; first compound 0.08 µM): 0.966
- relative viability (ChaGo-K-1; first compound 0.8 µM): 0.871
- relative viability (ChaGo-K-1; first compound 2.53 µM): 0.963
- relative viability (ChaGo-K-1; first compound 8 µM): 0.922
- relative viability (HCC-78; first compound 0.08 µM): 0.834
- relative viability (HCC-78; first compound 0.8 µM): 0.831
- relative viability (HCC-78; first compound 2.53 µM): 0.752
- relative viability (HCC-78; first compound 8 µM): 0.696
- relative viability (HOP-62; first compound 0.08 µM): 0.402
- relative viability (HOP-62; first compound 0.8 µM): 0.472
- relative viability (HOP-62; first compound 2.53 µM): 0.476
- relative viability (HOP-62; first compound 8 µM): 0.379
- relative viability (LCLC-97TM1; first compound 0.08 µM): 0.201
- relative viability (LCLC-97TM1; first compound 0.8 µM): 0.18
- relative viability (LCLC-97TM1; first compound 2.53 µM): 0.232
- relative viability (LCLC-97TM1; first compound 8 µM): 0.184
- relative viability (LOU-NH91; first compound 0.08 µM): 0.785
- relative viability (LOU-NH91; first compound 0.8 µM): 0.831
- relative viability (LOU-NH91; first compound 2.53 µM): 0.828
- relative viability (LOU-NH91; first compound 8 µM): 0.805
- relative viability (NCI-H1355; first compound 0.08 µM): 0.409
- relative viability (NCI-H1355; first compound 0.8 µM): 0.443
- relative viability (NCI-H1355; first compound 2.53 µM): 0.392
- relative viability (NCI-H1355; first compound 8 µM): 0.418
- relative viability (NCI-H1437; first compound 0.08 µM): 0.531
- relative viability (NCI-H1437; first compound 0.8 µM): 0.607
- relative viability (NCI-H1437; first compound 2.53 µM): 0.648
- relative viability (NCI-H1437; first compound 8 µM): 0.505
- relative viability (NCI-H1648; first compound 0.08 µM): 0.53
- relative viability (NCI-H1648; first compound 0.8 µM): 0.572
- relative viability (NCI-H1648; first compound 2.53 µM): 0.524
- relative viability (NCI-H1648; first compound 8 µM): 0.596
- relative viability (NCI-H1755; first compound 0.08 µM): 0.816
- relative viability (NCI-H1755; first compound 0.8 µM): 0.75
- relative viability (NCI-H1755; first compound 2.53 µM): 0.841
- relative viability (NCI-H1755; first compound 8 µM): 0.723
- relative viability (NCI-H1792; first compound 0.08 µM): 0.452
- relative viability (NCI-H1792; first compound 0.8 µM): 0.539
- relative viability (NCI-H1792; first compound 2.53 µM): 0.532
- relative viability (NCI-H1792; first compound 8 µM): 0.459
- relative viability (NCI-H2009; first compound 0.08 µM): 0.335
- relative viability (NCI-H2009; first compound 0.8 µM): 0.306
- relative viability (NCI-H2009; first compound 2.53 µM): 0.268
- relative viability (NCI-H2009; first compound 8 µM): 0.296
- relative viability (NCI-H2023; first compound 0.08 µM): 0.568
- relative viability (NCI-H2023; first compound 0.8 µM): 0.654
